Experimental data as given in patent US12290511B2, “Pharmaceutical preparation containing pyridyl aminoacetic acid compound” (Santen Pharmaceutical Co., Ltd., priority 2017, dated 2025).

System: patients with primary open angle glaucoma or ocular hypertension resistant to treatment with latanoprost ophthalmic solution
Experiment: Clinical test: 0.002% (w/v) omidenepag isopropyl eye drop A in patients resistant to latanoprost ophthalmic solution
Assay type: in vivo, humans
Method: Examination was conducted on the efficacy of omidenepag isopropyl on patients with inadequate efficacies of other glaucoma or ocular hypertension therapeutic agents.
Omidenepag isopropyl, polyoxyl 35 castor oil, glycerin, citric acid, sodium citrate, sodium edetate, and benzalkonium chloride were dissolved into purified water to adjust the pH. Thereafter, purified water was added to adjust the total volume, thereby preparing a 0.002% (w/v) omidenepag isopropyl eye drop A.
Patients with primary open angle glaucoma or ocular hypertension were subjected to a washout period of 1 to 4 weeks, and then received a binocular instillation of 0.005% latanoprost ophthalmic solution in an amount of 1 drop once a day for 8 weeks as an induction phase (week −8 to baseline). The patients with primary open angle glaucoma (21 humans) or ocular hypertension (5 humans) resistant to treatment with latanoprost ophthalmic solution, whose rate of decrease in intraocular pressure from the start of instillation was 15% or less at the end of the induction phase, entered the treatment phase (baseline to week 4), and received a binocular instillation of the above-described 0.002% (w/v) omidenepag isopropyl eye drop A in an amount of 1 drop (about 0.03 mL) once a day for 4 weeks every day.

`CC(C)OC(=O)CNc1cccc(CN(Cc2ccc(-n3cccn3)cc2)S(=O)(=O)c2cccnc2)n1` [omidenepag isopropyl, isopropyl (6-{[4-(pyrazol-1-yl)benzyl](pyridin-3-ylsulfonyl)aminomethyl}pyridin-2-ylamino)acetate] was tested, and the “intraocular pressure lowering compared with latanoprost instillation” value was “lowers intraocular pressure to a greater extent than latanoprost instillation”.
